Tests used:
[1] = system: established type II collagen-induced arthritis (CIA) in DBA/1 mice; test: 14-day mouse established type II collagen-induced arthritis (CIA), PO QD (Example 10); format: in vivo; details: for AUC (All Paws) - Corrected for Initial Score / Change in Body Weight (g) / Histopathology Summed Score Knees / Histopathology Summed Score Paws / Histopathology Summed Score Six-Joints / Paw Score AUC (All Paws): mean(SE); for disease-induced body weight loss (percent change from baseline) vs vehicle controls / arthritis scores measured daily vs vehicle controls: p<0.05 on the days printed
[2] = Rat pharmacokinetics, oral gavage vs dietary administration in chow; format: in vivo
Procedure: To evaluate the effects of continuous low dose administration versus oral gavage administration of Formula (II), six male rats per group were treated with oral gavage administration of vehicle or Formula (II) at a dose of 30 mg/kg/day for 14 days. Six male rats per group were treated with dietary Formula (II) in chow at concentrations of 100 and 500 ppm; a control group (no vehicle, no chow) was also included in the study. All animals were evaluated for pharmacokinetics on Day 14, during the night cycle to accommodate the dietary groups. The spleens were collected at necroscopy and splenocytes were harvested and cryopreserved for BTK target occupancy analysis. The presence of inactivated BTK in normal splenocytes was measured using a BTK active-site specific probe in an ELISA assay. Plasma concentrations of Formula (II) were measured using liquid chromatography/mass spectroscopy; pharmacokinetic parameters were estimated using WinNonlin (Pharsight, Cetara).

[3] = system: B cell receptor (BCR); test: Ex vivo anti-IgM induced CD86 and CD69 expression on splenocyte B cells after oral dosing of mice; format: in vivo, mouse; details: single oral 25 mg/kg
Procedure: B cell stimulation through the B cell receptor (BCR) with antibodies (e.g., anti-IgM) results in the activation of BTK and subsequent cellular changes, including the upregulation of various cell surface receptors. Measuring the inhibition of BCR induced protein phosphorylation downstream of Btk, and the inhibition of surface receptor upregulation provides a way to assess the Btk inhibitor activity. In the first study, the BTK target occupancy in splenocytes was measured over time, providing evidence for BTK resynthesis in the tissue compartment of interest.
Mice were sacrificed at 3, 6, 12, 18, and 24 hours after treatment with the BTK inhibitors (FIG. 27A, FIG. 27B, and FIG. 27C). Spleens were harvested and splenocyte preparations were made for flow cytometry analysis of B cell functions. Fresh or cryopreserved splenocytes were cultured with a-IgM to stimulate BCR, and the up-regulation of CD69, an early functional marker of B cell activation, was analyzed by flow cytometry.

[4] = 5 mg/kg PO QD, therapeutic paws only
[5] = 25 mg/kg PO QD, therapeutic paws only

With CC#CC(=O)N1CCC[C@H]1c1nc(-c2ccc(C(=O)Nc3ccccn3)cc2)c2c(N)nccn12 [Formula (II), (S)-4-(8-amino-3-(1-(but-2-ynoyl)pyrrolidin-2-yl)imidazo[1,5-a]pyrazin-1-yl)-N-(pyridin-2-yl)benzamide] the “AUC (All Paws) - Corrected for Initial Score” value (“AUC (All Paws) - Corrected” below) ([1]; 1 mg/kg PO QD) was 14.99(3.62), the “Change in Body Weight (g)” value ([1]; 1 mg/kg PO QD) was −0.36(0.77) g and the “Histopathology Summed Score Knees” value ([1]; 1 mg/kg PO QD) was 4.90(1.32). For the same compound, the “Histopathology Summed Score Paws” value ([1]; 1 mg/kg PO QD) was 7.95(1.54), the “Histopathology Summed Score Six-Joints” value ([1]; 1 mg/kg PO QD) was 6.93(1.22) and the “Paw Score AUC (All Paws)” value ([1]; 1 mg/kg PO QD) was 22.14(4.11). For the same compound, the “disease-induced body weight loss (percent change from baseline) vs vehicle controls” value ([1]; 1 mg/kg PO QD) was “significantly inhibited toward normal”, the “daily arthritis scores vs vehicle controls” value ([1]; 1 mg/kg PO QD, prophylactic paws) was “significantly reduced toward normal” and the knee histopathology parameters ([1]; 1 mg/kg, compared to 1 mg/kg ibrutinib) was “significantly improved”. The “six-joint histopathology, reduction of summed scores vs vehicle controls” value ([1]; 5 mg/kg PO QD) was 86%, the “total body weight loss from enrollment to study termination” value ([1]; 5 mg/kg PO QD) was “significantly inhibited” and the “Clinical arthritis scores AUC, reduction vs vehicle controls” value ([1]; 5 mg/kg PO QD, all paws) was 82%. For the same compound, the “Clinical arthritis scores AUC, reduction when corrected for initial enrollment score” value ([1]; 5 mg/kg PO QD, all paws) was 99%, the “arthritis scores measured daily vs vehicle controls” value ([1]; 5 mg/kg PO QD, all paws) was “significantly reduced toward normal” and the “AUC (All Paws) - Corrected” value ([1]; 5 mg/kg PO QD) was “*0.43(2.76)”. For the same compound, the “Change in Body Weight (g)” value ([1]; 5 mg/kg PO QD) was “*1.23(0.52) g”, the “Histopathology Summed Score Knees” value ([1]; 5 mg/kg PO QD) was “*1.48(0.94)” and the “Histopathology Summed Score Paws” value ([1]; 5 mg/kg PO QD) was “*2.23(0.72)”. The “Histopathology Summed Score Six-Joints” value ([1]; 5 mg/kg PO QD) was “*1.98(0.69)”, the “Paw Score AUC (All Paws)” value ([1]; 5 mg/kg PO QD) was “*7.58(2.63)” and the “disease-induced body weight loss (percent change from baseline) vs vehicle controls” value ([1]; 5 mg/kg PO QD) was “significantly inhibited toward normal”. The “daily arthritis scores vs vehicle controls” value ([1]; 5 mg/kg PO QD, prophylactic paws) was “significantly reduced toward normal”, the “Clinical arthritis scores AUC, reduction vs vehicle controls” value ([1]; 5 mg/kg PO QD, prophylactic paws only) was 94% and the “daily arthritis scores vs vehicle controls” value ([1]; 5 mg/kg PO QD, therapeutic paws) was “significantly reduced toward normal”. For the same compound, the “Clinical arthritis scores AUC, reduction vs vehicle controls” value [1, 4] was 64%, the “Clinical arthritis scores AUC, reduction when corrected for initial enrollment score” value [1, 4] was 110% and the “six-joint histopathology, reduction of summed scores vs vehicle controls” value ([1]; 25 mg/kg PO QD) was 93%. For the same compound, the “total body weight loss from enrollment to study termination” value ([1]; 25 mg/kg PO QD) was “significantly inhibited”, the “Clinical arthritis scores AUC, reduction vs vehicle controls” value ([1]; 25 mg/kg PO QD, all paws) was 95% and the “Clinical arthritis scores AUC, reduction when corrected for initial enrollment score” value ([1]; 25 mg/kg PO QD, all paws) was 115%. The “arthritis scores measured daily vs vehicle controls” value ([1]; 25 mg/kg PO QD, all paws) was “significantly reduced toward normal”, the “AUC (All Paws) - Corrected” value ([1]; 25 mg/kg PO QD) was “*−5.24(1.36)” and the “Change in Body Weight (g)” value ([1]; 25 mg/kg PO QD) was “*1.01(0.66) g”. The “Histopathology Summed Score Knees” value ([1]; 25 mg/kg PO QD) was “*1.25(0.43)”, the “Histopathology Summed Score Paws” value ([1]; 25 mg/kg PO QD) was “*0.94(0.40)” and the “Histopathology Summed Score Six-Joints” value ([1]; 25 mg/kg PO QD) was “*1.04(0.36)”. The “Paw Score AUC (All Paws)” value ([1]; 25 mg/kg PO QD) was “*1.91(0.96)”, the “disease-induced body weight loss (percent change from baseline) vs vehicle controls” value ([1]; 25 mg/kg PO QD) was “significantly inhibited toward normal” and the “daily arthritis scores vs vehicle controls” value ([1]; 25 mg/kg PO QD, prophylactic paws) was “significantly reduced toward normal”. The “Clinical arthritis scores AUC, reduction vs vehicle controls” value ([1]; 25 mg/kg PO QD, prophylactic paws only) was 100%, the “daily arthritis scores vs vehicle controls” value ([1]; 25 mg/kg PO QD, therapeutic paws) was “significantly reduced toward normal” and the “Clinical arthritis scores AUC, reduction vs vehicle controls” value [1, 5] was 89%. The “Clinical arthritis scores AUC, reduction when corrected for initial enrollment score” value [1, 5] was 152%, the “spleen weights compared to vehicle controls” value ([1]; all dose groups PO QD) was “not significantly affected” and the “Cmax as fraction of the AUC0-18 value” ([2]; dietary 100 and 500 ppm in chow, Day 14) was 1/10. The Cmax ([2]; rat, plasma, oral gavage 30 mg/kg/day, Day 14, male rats) was 506 ng/mL, the AUC(0-t) ([2]; rat, plasma, oral gavage 30 mg/kg/day, Day 14, male rats, read-out: AUC0-12) was 864 ng·h/mL and the inhibition at 25 mg/kg ([3]; Mus musculus, B-cell, 3-24 hours, read-out: CD69 % inhibition over the entire time course) was 84.3%. The “inhibition of ex vivo anti-IgM induced responses in B cells” value ([3]; 3 hours post-dose) was “near complete inhibition” and the “inhibition of CD86 and CD69 expression” value ([3]; persisting for 24 hours) was “partial inhibition”.
